Experimental data from patent US20250073138A1, “Lipid-based nanoparticles for enhancing percutaneous absorption and manufacturing method thereof” (COSMECCA KOREA CO., LTD., priority 2023, published 2025).

Test system: HaCaT, a human keratinocyte cell line
Experiment: Live/dead fluorescence staining cytotoxicity
Type: cell-based
Conditions: treated at different concentrations for 24 h, calcein-AM / ethidium homodimer
Method: First, HaCaT, a human keratinocyte cell line, was treated with tannic acid, TAMA, and TAMA-introduced nanoparticles (TANV) at different concentrations for 24 h. Thereafter, calcein-acetoxymethyl ester (calcein-AM), which stains viable cells, and ethidium homodimer, which stains dead cells, were treated simultaneously, and then washed twice with the PBS buffer solution to obtain images of viable and dead cells through fluorescence microscopy.

Molecule	cytotoxicity (live/dead assay)
tannic acid-maleimide [TAMA]	a slight level of cytotoxicity
O=C(OC[C@H]1O[C@@H](OC(=O)c2cc(O)c(O)c(OC(=O)c3cc(O)c(O)c(O)c3)c2)[C@H](OC(=O)c2cc(O)c(O)c(OC(=O)c3cc(O)c(O)c(O)c3)c2)[C@@H](OC(=O)c2cc(O)c(O)c(OC(=O)c3cc(O)c(O)c(O)c3)c2)[C@@H]1OC(=O)c1cc(O)c(O)c(OC(=O)c2cc(O)c(O)c(O)c2)c1)c1cc(O)c(O)c(OC(=O)c2cc(O)c(O)c(O)c2)c1 [tannic acid]	cytotoxicity and death occurred significantly
